From publication PMC7767178 (International Journal of Molecular Sciences, 2020)
Where “and” joins values, the source holds several entries; their conditions need not be identical. Equal entries are not always repeated. Where two headings read alike, the source gives them in different places. Positions of bridges follow the written chain, without caps; N, C: chain ends. Residues, ends and D or L forms follow the SMILES beside them.

Legend:
[1] = test system: S. hyicus 437-2; type: cell-based
[2] = test system: S. aureus ATCC546
Protocol: (§1) Briefly, the tested strains including Gram-negative bacteria, Gram-positive bacteria, and fungi were cultured to the logarithmic growth phase, diluted to 10^5 CFU/mL, and added into 96-well plates (90 μL/well). Two-fold serial dilutions of peptides or antibiotics dissolved in PBS were added to each well (10 μL/well). […] All experiments were repeated three times.

[3] = test system: Aeromonas veronii ACCC61732
Protocol: as §1

[4] = test system: S. aureus ATCC25923
Protocol: as §1

[5] = test system: S. hyicus NCTC10350
Protocol: as §1

[6] = test system: Pseudomonas aeruginosa CICC21630
Protocol: as §1

[7] = test system: A. veronii CL0901
Protocol: as §1

[8] = test system: A. veronii ACCC61732; assay: ATP release, BacTiter-Glo; type: cell-based; details: 8×, 16× and 32× MIC, 60 min, 37 °C, luminescence, n = 3
Protocol: The assay was performed for three biological replicates at 37 °C, with luminescence recorded using a Tecan Infinite M1000 Pro plate reader. The fold reduction of ATP was calculated as: Fold reduction ATP = 1 − (Ltreat − Lmedia/Lcontrol − Lmedia), where Ltreat is the luminescence of treated cells, Lmedia is the luminescence of MHB without cells, and Lcontrol is the luminescence of untreated cells. Resultant graphs show mean (n = 3) and SEM for each data point, prepared in Prism 7 [46].

[9] = test system: A. veronii ACCC61732 mature biofilms; assay: Eradication of mature biofilms, crystal violet; type: cell-based; details: 16× MIC, 24 h on 24 h biofilm
Protocol: A. veronii ACCC61732 cells (1 × 10^8 CFU/mL) were cultured in TSB medium in the 96-well plates at 37 °C for 24 h.

[10] = test system: Escherichia coli; assay: MIC, range over strains; type: cell-based; details: range over the strains of Table 2
From the text: (§2) All experiments were repeated three times.

[11] = test system: A. veronii; assay: MIC, range over strains; type: cell-based; details: range over the strains of Table 2
From the text: as §2

[12] = test system: A. veronii ACCC61732; assay: Inner membrane permeability, PI staining, flow cytometry; type: cell-based
Protocol: To analyze effects of peptides on the inner membrane, A. veronii ACCC61732 cells were cultured to mid-log phase at 37 °C in MHB medium, washed thrice with PBS, and resuspended in the PBS buffer to 1 × 10^8 CFU/mL. […] After fixation with PI, the samples were detected by a fluorescent inverted microscope and FACS Calibur Flow Cytometer (BD, San Jose, CA, USA), respectively. Cell Quest Pro software (BD, San Jose, CA, USA) was used for the data analysis.

[13] = test system: A. veronii ACCC61732 genomic DNA; assay: CD spectra of genomic DNA with peptides; type: binding; details: mass ratios 2.5 and 10.0, 10 min, room temperature
Protocol: CD spectra were performed to examine the secondary structure of genomic DNA from A. veronii ACCC61732 after incubation with peptides. […] The mixtures were loaded into a cuvette of 1.0-mm path length and scanned from 190 to 330 nm at 25 °C using a Pistar π-180 CD spectrometer (Applied Photophysics Ltd., Surry, UK).

[14] = in vitro; details: mouse, 25% mouse serum
[15] = test system: IL-1β; assay: Serum cytokine, ELISA, peritonitis model; type: in vivo; details: 5 μmol/kg, 24 h after treatment, range over mice
Protocol: (§3) Sera and organs (livers, kidneys, spleens, and lungs) were collected from the mice at 24 h post-treatment. The organs were homogenized in sterile PBS to evaluate bacterial translocation by colony counting. The levels of cytokines (TNF-α, IL-1β, IL-6, and IL-10) in sera were detected using the ELISA kits.

[16] = test system: IL-6; assay: Serum cytokine, ELISA, peritonitis model; type: in vivo; details: 5 μmol/kg, 24 h after treatment, range over mice
Protocol: as §3

[17] = test system: IL-10; assay: Serum cytokine, ELISA, peritonitis model; type: in vivo; details: 5 μmol/kg, 24 h after treatment, range over mice
Protocol: as §3

[18] = test system: A. veronii ACCC61732 biofilms; assay: Mouse model of catheter-associated biofilm infection, bacteria in catheter; type: in vivo, ICR mice; details: 5 μmol/kg peptide or CIP 24 h after catheter implantation, catheters collected after seven days, six mice per group
Protocol: Briefly, the catheter was cut into 1 cm segments; each piece was sterilized with 70% ethanol and then dried by air. Bacterial biofilms were developed on the catheter by placing individual segments into tubes containing 1.0 mL of a cell suspension (1 × 10^8 CFU/mL) in TSB. After incubation for 24 h at 37 °C, colonized catheters were recovered aseptically and rinsed with PBS to remove unbound bacteria. ICR female mice (20 ± 5 g) were anesthetized with isoflurane; the flanks were shaved and the skin was cleansed with alcohol. […] The incision was then covered with intact skin and closed with surgical suture line and the skin was disinfected. […] The untreated mice were used as the negative control and the mice with sterile catheter were used as the blank control. The mice were anesthetized and sacrificed after seven days. The catheters in the back of the mice were collected and thoroughly shaken in sterile PBS.

[19] = test system: MDR A. veronii ACCC61732; assay: Mouse peritonitis model, survival; type: in vivo, ICR mice; details: 5 μmol/kg i.p. 0.5 h after infection, seven days, six mice
Protocol: […]. The mice injected with only bacteria or saline served as the negative and blank control. The mouse survival was recorded daily for seven days.

[20] = S. hyicus 437-2 (clinical isolate, pig farm), broth dilution, 37 °C, 16–18 h, three experiments
[21] = S. aureus ATCC546, broth dilution, 37 °C, 16–18 h, three experiments
[22] = Aeromonas veronii ACCC61732 (MDR), broth dilution, 37 °C, 16–18 h, three experiments
[23] = S. aureus ATCC25923, broth dilution, 37 °C, 16–18 h, three experiments
[24] = S. hyicus NCTC10350, broth dilution, 37 °C, 16–18 h, three experiments
[25] = Pseudomonas aeruginosa CICC21630, broth dilution, 37 °C, 16–18 h, three experiments
[26] = A. veronii CL0901, broth dilution, 37 °C, 16–18 h, three experiments

SMILES	MIC [1]	MIC [1, 20]	MIC ([2]; ATCC546)	MIC [2, 21]	MIC [3, 22]	MIC ([4]; ATCC25923)	MIC [4, 23]	MIC ([5]; NCTC10350)	MIC [5, 24]	MIC ([6]; CICC21630)	MIC [6, 25]	MIC [7]	MIC [7, 26]	MIC values against Escherichia coli [10]	MIC values against A. veronii [11]	Permeability (PI-positive cells) ([12]; 1× MIC, 0.5 h)	Permeability (PI-positive cells) ([12]; 1× MIC, 2 h)	Permeability (PI-positive cells) ([12]; 2× MIC, 0.5 h)	Permeability (PI-positive cells) ([12]; 2× MIC, 2 h)	Permeability (PI-positive cells) ([12]; 4× MIC, 0.5 h)	also measured
CC(C)[C@H]1NC(=O)CNC(=O)[C@@H](CC(N)=O)NC(=O)[C@@H](CCCNC(=N)N)NC(=O)[C@@H](Cc2ccc(O)cc2)NC(=O)[C@@H](C(C)C)NC(=O)[C@H](NC(=O)[C@H](NC(=O)[C@@H](CC(N)=O)NC(=O)[C@@H](Cc2c[nH]c3ccccc23)NC(=O)[C@@H](C)NC(=O)[C@@H](Cc2ccccc2)NC(=O)CN)C(C)C)CSSC[C@H](C(=O)N[C@H](Cc2c[nH]cn2)C(=O)N[C@H](CCCNC(=N)N)C(=O)N[C@H](CCCNC(=N)N)C(=O)N[C@H](C)C(=O)N[C@H](CC(N)=O)C(N)=O)NC(=O)[C@@H](C(C)C)NC(=O)[C@@H](CCCNC(=N)N)NC1=O [DN6NH2]	3.23 µM	8 µg/mL	6.46 µM	16 µg/mL	4 μg/mL and 1.62 μM	3.23 µM	8 µg/mL	3.23 µM	8 µg/mL	3.23 µM	8 µg/mL	12.93 µM	32 µg/mL	1.62 to 3.23 µM	1.62 to 25.86 µM	0%	3.42%	9.16%	9.83%	41.93%	ATP release [8]: 84.34–86.15%; inhibition of mature biofilms [9]: 91.90%; Permeability (PI-positive cells) ([12]; 4× MIC, 2 h): 33.73%; effect on CD spectrum of genomic DNA [13]: elliptic intensity of the positive band declined; remaining at 2 h [14]: 92.7%; remaining at 4.5 h [14]: 78.4%; serum level of IL-1β [15]: 8.17 to 25.94 pg/mL; serum level of IL-6 [16]: 104.48 to 115.43 pg/mL; serum level of IL-10 [17]: 15.94 to 25.46 pg/mL; decrease of bacterial cells in the catheter [18]: 71.55%
CC(C)[C@H](N)C(=O)N[C@@H](Cc1ccccc1)C(=O)N[C@@H](C)C(=O)N[C@@H](Cc1c[nH]c2ccccc12)C(=O)N[C@@H](CC(N)=O)C(=O)N[C@H](C(=O)N[C@H]1CSSC[C@@H](C(=O)N[C@@H](Cc2c[nH]cn2)C(=O)N[C@@H](CCCNC(=N)N)C(=O)N[C@@H](CCCNC(=N)N)C(=O)N[C@@H](C)C(=O)N[C@@H](CC(N)=O)C(N)=O)NC(=O)[C@H](C(C)C)NC(=O)[C@H](CCCNC(=N)N)NC(=O)[C@H](C(C)C)NC(=O)[C@H](C(C)C)NC(=O)[C@H](CC(N)=O)NC(=O)[C@H](CCCNC(=N)N)NC(=O)[C@H](Cc2ccc(O)cc2)NC(=O)[C@H](C(C)C)NC1=O)C(C)C [V112N6NH2] (H-VFAWNVCVYRNVVRVCHRRAN-NH2; disulfide 7-16 (inferred))	12.5 µM	32 µg/mL	6.25 µM	16 µg/mL	16 µg/mL	12.5 µM	32 µg/mL	25.01 µM	64 µg/mL	12.5 µM	32 µg/mL	12.51 µM	32 µg/mL	1.56 to 3.13 µM	6.25 to 12.51 µM	0%	1.8%	0%	5.67%	4.28%	survival rate of mice [19]: 66.67%; MIC [3]: 6.25 µM; Permeability (PI-positive cells) ([12]; 4× MIC, 2 h): 23.93%; effect on CD spectrum of genomic DNA [13]: do not affect the double helix of genomic DNA; remaining at 2 h [14]: 81.4%; remaining at 4.5 h [14]: 32.1%; remaining at 6 h [14]: 19.1%; serum level of IL-1β [15]: 16.41 to 24.86 pg/mL; serum level of IL-6 [16]: 133.08 to 150.00 pg/mL; serum level of IL-10 [17]: 16.48 to 19.60 pg/mL; decrease of bacterial cells in the catheter [18]: 55.29%
